Measurements as given in patent publication US9617276B2, “Compounds and methods for treating AIDS and HIV infections” (priority 2009, dated 2017).
Read-outs that look alike come from different tables or passages of the source.

Columns and labels:
HIV-1 [1] = conditions: prior inhibitors; read-out: ID50 (the source's name); cited from earlier work
HIV-1 protease = target: T1, HIV-1 protease (Human immunodeficiency virus type 1 group M subtype B, UniProt P04585); assay: HIV protease enzyme inhibition, fluorometric assay of Toth and Marshall; type: biochemical; conditions: Ki, Table 2
T1 construct: A simple, continuous fluorometric assay for HIV protease
Procedure: (§1) The inhibitory potencies of acyclic and cyclic inhibitors were measured by the assay protocol of Toth and Marshall (Toth, M. V.; Marshall, G. R. A simple, continuous fluorometric assay for HIV protease. Int. J. Pep. Protien Res. 1990, 36, 544-55).

HIV-1NL4-3 [2] = assay: p24 Gag inhibition in MT-4 cells, HIV-1NL4-3; type: cell-based; conditions: Human immunodeficiency virus 1, MT4, read-out: EC50 (μM), HIV-1NL4-3, Table 9, mean ± 1 SD
Procedure: (§2) All assays were performed in duplicate or triplicate. […] All assays were performed in duplicate or triplicate.

HIV-1LAI = assay: drug susceptibility, MT-2 cells, MTT assay, HIV-1LAI; type: cell-based
Procedure: as §2
(§3) Each selectivity index denotes a ratio of CC50 to EC50 against HIV-1LAI N.D., not done.

HIV-1286-1μM = assay: microbe, parasite or virus in culture; type: cell-based, HIV-1
Procedure: (§4) Briefly, MT-2 cells (2×10^4/ml) were exposed to 100 50% tissue culture infectious doses (TCID50S) of HIV-1LAI, in the presence or absence of various concentrations of drugs in 96-well microculture plates and were incubated at 37° C. for 7 days. After 100 μl of the medium was removed from each well, 3-(4,5-dimetylthiazol-2-yl)-2,5-diphenyltetrazolium bromide (MTT) solution (10 μl, 7.5 mg/ml in phosphate-buffered saline) was added to each well in the plate, followed by incubation at 37° C. for 3 h. […] All assays were performed in duplicate or triplicate. […] To determine the drug susceptibility of certain laboratory HIV-1 strains, MT-4 cells were used as target cells. In brief, MT-4 cells (10^5/ml) were exposed to 100 TCID50S of drug-resistant HIV-1 strains in the presence or absence of various concentrations of drugs and on day 7 of culture, the supernatant was harvested and the amounts of p24 Gag protein were determined. […] All assays were performed in duplicate or triplicate.
(§5) Numbers in parentheses represent n-fold changes in EC50s for each isolate compared to the EC50s for wild-type HIV-1NL4-3.

HIV-1396-1μM = assay: microbe, parasite or virus in culture; type: cell-based, HIV-1; conditions: for EC50: Human immunodeficiency virus 1, MT4, read-out: EC50 (μM), HIV-1396-1 μM
Procedure: as §4, §5

HIV-1246-1μM = assay: microbe, parasite or virus in culture; type: cell-based, HIV-1; conditions: for EC50: Human immunodeficiency virus 1, MT4, read-out: EC50 (μM), HIV-1246-1 μM
Procedure: as §4, §5

HIV-1216-P50 = assay: microbe, parasite or virus in culture; type: cell-based, HIV-1
Procedure: as §4, §5

cytotoxicity CC50 = type: cell-based, Human; conditions: human
HIV-1 [3] = assay: antiviral assay (IC50); type: cell-based; conditions: Human immunodeficiency virus 1, Table 2; read-out: IC50
Procedure: as §1

HIV-1NL4-3 [4] = assay: in vitro selection of PI-resistant HIV-1 variants in MT-4 cells; type: cell-based; conditions: HIV-1NL4-3 in MT-4 cells, increasing drug concentrations
Excerpt: The culture supernatants were harvested on day 7 and used to infect fresh MT-4 cells for the next round of culture in the presence of increasing concentrations of each drug.

HIV-2ROD = assay: drug susceptibility, MT-2 cells, MTT assay, HIV-2ROD; type: cell-based; conditions: Human immunodeficiency virus 2, MT2, read-out: EC50 (μM) for HIV-2ROD
Procedure: as §2, §3

HIV-2EHO = assay: drug susceptibility, MT-2 cells, MTT assay, HIV-2EHO; type: cell-based; conditions: Human immunodeficiency virus 2, MT2, read-out: EC50 (μM) for HIV-2EHO
Procedure: as §2, §3

HIV-1APV5μM = assay: microbe, parasite or virus in culture; type: cell-based; conditions: Human immunodeficiency virus 1, MT4, read-out: EC50 (μM), HIV-1APV5 μM
Procedure: (§6) The susceptibility of HIV-1LAI and primary HIV-1 isolates to various drugs were determined as described previously (Koh et al. 2003 Antimicrob Agents Chemother 47:3123-9). Briefly, MT-2 cells (2×10^4/ml) were exposed to 100 50% tissue culture infectious doses (TCID50S) of HIV-1LAI, in the presence or absence of various concentrations of drugs in 96-well microculture plates and were incubated at 37° C. for 7 days. After 100 μl of the medium was removed from each well, 3-(4,5-dimetylthiazol-2-yl)-2,5-diphenyltetrazolium bromide (MTT) solution (10 μl, 7.5 mg/ml in phosphate-buffered saline) was added to each well in the plate, followed by incubation at 37° C. for 3 h. […] All assays were performed in duplicate or triplicate. To determine the susceptibility of primary HIV-1 isolates to drugs, phytohemagglutinin-activated peripheral blood mononuclear cells (PHA-PBMCs; 106/ml) were exposed to 50 TCID50S of each. The target cells were exposed to HIV-1104pre or drug-resistant HIV-1 in the presence or absence of various concentrations of drugs and were incubated for 7 days. Upon the conclusion of the culture, the amounts of p24 Gag protein in the supernatants were determined using a fully automated chemiluminescent enzyme immunoassay system (Lumipulse F; Fujirebio Inc., Tokyo, Japan) (Maeda et al. 2001 J Biol Chem 276:35194-200). To determine the drug susceptibility of certain laboratory HIV-1 strains, MT-4 cells were used as target cells. In brief, MT-4 cells (10^5/ml) were exposed to 100 TCID50S of drug-resistant HIV-1 strains in the presence or absence of various concentrations of drugs and on day 7 of culture, the supernatant was harvested and the amounts of p24 Gag protein were determined. […] All assays were performed in duplicate or triplicate.
as §5

HIV-1LPV5μM = assay: microbe, parasite or virus in culture; type: cell-based; conditions: Human immunodeficiency virus 1, MT4, read-out: EC50 (μM), HIV-1LPV5 μM
Procedure: as §6, §5

[5] = test system: multidrug-resistant clinical HIV-1 isolates (HIV-1MDR); assay: microbe, parasite or virus in culture; type: cell-based; conditions: Human immunodeficiency virus 1, read-out: greatest EC50 value against the clinical isolates
Procedure: as §6
These clinical strains contained 9 to 14 amino acid substitutions in the protease-encoding region, which have reportedly been associated with HIV-1 resistance to various PIs.
Amino acid substitutions identified in the protease-encoding region compared to the consensus type B sequence cited from the Los Alamos database include L63P in HIV-1ERS104pre; L10I, K14R, L33I, M36I, M46I, F53I, K55R, I62V, L63P, A71V, G73S, V82A, L90M, and I93L in HIV-1MDR/B; L10I, I15V, K20R, L24I, M36I, M46L, I54V, I62V, L63P, K70Q, V82A, and L89M in HIV-1MDR/C; L10I, V11I, T12E, I15V, L19I, R41K, M46L, L63P, A71T, V82A, and L90M in HIV-1MDR/G; L10I, K14R, R41K, M46L, I54V, L63P, A71V, V82A, L90M, I93L in HIV-1MDR/TM; L10I, K43T, M46L, I54V, L63P, A71V, V82A, L90M, and Q92K in HIV-1MDR/MM; L10I, L24I, I33F, E35D, M36I, N37S, M46L, I54V, R57K, I62V, L63P, A71V, G73S, and V82A in HIV-1MDR/JSL. HIV-1ERS104pre served as a source of wild-type HIV-1. EC50s were determined by using PHA-PBMs as target cells, and inhibition of p24 Gag protein production by each drug was used as an end point. Numbers in parentheses represent n-fold changes of EC50s for each isolate compared to EC50s for wild-type HIV-1ERS104pre.

[6] = compared to wild-type HIV-1NL4-3

In the case of `COc1ccc(S(=O)(=O)N(CC(C)C)CC(O)C(Cc2ccccc2)NC(=O)OC2COC3OCCC23)cc1` (centres unmarked) [Compound 2, TMC-126], the IC50 (HIV-1 [1]) is listed as 1.2 nM.
For `COc1ccc2c(c1)OCC=CCCCCN(CC(O)C(Cc1ccccc1)NC(=O)OC1COC3OCCC13)S2(=O)=O` (centres unmarked) [Compound 14d], the Ki (HIV-1 protease) was < 1 nM, the EC50 (HIV-1NL4-3 [2]) was 0.017 ± 0.005 µM and the EC50 (HIV-1LAI; Human immunodeficiency virus 1, MT2, read-out: EC50 (μM) for HIV-1LAI) was 0.014 ± 0.001 µM. The “Selectivity Index” value (HIV-1LAI; ratio of CC50 to EC50 against HIV-1LAI) was 3,200, the EC50 (HIV-1286-1μM; Human immunodeficiency virus 1, MT4, read-out: EC50 (μM), HIV-1286-1 μM) was > 1 µM and the “n-fold change in EC50, HIV-1286-1 μM” value (HIV-1286-1μM; [6]) was > 59. The EC50 (HIV-1396-1μM) was 0.52 ± 0.07 µM, the “n-fold change in EC50, HIV-1396-1 μM” value (HIV-1396-1μM; [6]) was “(31)” and the EC50 (HIV-1246-1μM) was 0.37 ± 0.013 µM. For the same molecule, the “n-fold change in EC50, HIV-1246-1 μM” value (HIV-1246-1μM; [6]) was “(22)”, the EC50 (HIV-1216-P50; Human immunodeficiency virus 1, MT4, read-out: EC50 (μM), HIV-1216-p50) was 0.24 ± 0.06 µM and the “n-fold change in EC50, HIV-1216-p50” value (HIV-1216-P50; [6]) was “(14)”. The CC50 (cytotoxicity CC50) was 44900 ± 4100 nM, the IC50 (HIV-1 [3]) was < 100 nM and the “passage by which HIV-1 variants replicating in the presence of 1 μM drug emerged” value (HIV-1NL4-3 [4]) was 33 passages.
In the case of `CC(C)CN(C[C@@H](O)[C@H](Cc1ccccc1)NC(=O)O[C@H]1CO[C@H]2OCC[C@H]21)S(=O)(=O)c1ccc(N)cc1` [DRV, Darunavir], the EC50 (HIV-2ROD) is reported as 0.01 ± 0.004 µM, the EC50 (HIV-2EHO) is reported as 0.008 ± 0.007 µM and the EC50 (HIV-1APV5μM) is reported as 0.29 ± 0.0018 µM. It also gave an EC50 (HIV-1LPV5μM) of 0.025 ± 0.0066 µM, an EC50 (HIV-1396-1μM) of 0.016 ± 0.001 µM and an EC50 (HIV-1246-1μM) of 0.029 ± 0.001 µM. The EC50 [5] was 27 nM.
